Measured values from patent publication US20230150951A1, “2,5- OR 2,6-DISUBSTITUTED HYDROQUINONE DERIVATIVES WITH AT LEAST ONE CARBOXY, SULFO OR AMIDO GROUP USEFUL AS MEDICAMENTS” (OM PHARMA SA, priority 2020, published 2023).

Columns and labels:
Type in all cases: cell-based
Human neutrophils [1] = assay: Inhibition of ROS production in human neutrophils (isoluminol chemiluminescence); conditions: Homo sapiens, Neutrophil, fMLP+TNF-α stimulated PMN
Description: NADPH oxidase, located in the plasma membrane and in the membranes of specific granules, produces superoxide anions from which other ROS, such as hydrogen peroxide, singlet oxygen, hypochlorite, and active hydroxyl radicals. ROS are released into the surrounding medium or into a membrane-enclosed subcellular organelle. One quick and sensitive method for measuring the generation of these metabolites is chemiluminescence (CL). Isoluminol amplified CL technique, is very sensitive and widely used to study respiratory burst (mainly extracellular production of ROS) induced in neutrophils.
Human neutrophils were isolated from buffy coats which obtained from healthy donors. The isolated neutrophils (3×10^6/ml) were suspended in Hanks' Balanced Salt Solution (HBSS) with Calcium and Magnesium. Neutrophils were pre-incubated with the compounds at different concentrations (0.1, 0.3, 1, 3 and 10 μM) for 30 min at 37° C. The black 96-well cell culture plates were coated with human fibrinogen (0.25 mg/ml in PBS), and incubated overnight at 4° C. or 2 hr at 37° C. Then the plates were washed with endotoxin-free PBS. The neutrophils were incubated (priming) with TNF-α (20 ng/ml) for 10 minutes at 37° C. Thereupon the 75 μl of cell suspension and 75 μl (Isoluminol+HRP solution) were added to each well. The chemiluminescence was recorded (every 25 sec for 250 sec) after fMLP (1 μM) activation using a Multilabel Reader victor3 (Perkin Elmer, USA). Background values, defined as the mean chemiluminescent values of isoluminol diluted in HBSS, were subtracted from all readings (CPS, count per second). The assays were done in duplicate or triplicate.

FGF-2 = biological target: T1, FGF-2 (Homo sapiens, UniProt P09038); assay: FGF-2 induced sprouting of HUVEC, spheroid-based cellular angiogenesis assay; conditions: FGF-2 25 ng/mL preincubated with compound, 24 h
T1 construct: purchased Peprotech 100-18C
T1 sequence (P09038 134-288): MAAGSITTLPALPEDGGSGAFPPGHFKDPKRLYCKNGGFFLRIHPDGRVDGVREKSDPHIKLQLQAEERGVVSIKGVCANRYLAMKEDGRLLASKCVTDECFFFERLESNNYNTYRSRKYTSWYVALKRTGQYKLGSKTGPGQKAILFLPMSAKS
Experimental: (§1) Aim of this in vitro method is to assess compounds effects on FGF-2, FGF-1, or VEGF-A induced sprouting of human umbilical vein endothelial cells (HUVEC) in the spheroid-based cellular angiogenesis assay. Before adding the growth factors to the cells, they were preincubated with the compound. Sunitinib was tested as a control (without preincubation).
(§2) IC50 values determined for the tested compounds are expressed in microM [μM] and the values for the inhibition of FGF-1, FGF2 and VEGF-A induced growth (sprouting) are listed after each compound in the examples after chemical characterization.
(§3) Sprouting test was performed on the compounds dissolved in DMSO to reach 100-fold concentrated stock solutions and dissolved in culture media. Sunitinib as reference compound was provided by ProQinase GmbH. Growth factors were purchased from rhFGF-basic (FGF-2), Peprotech, New Jersey, USA, #100-18C, Lot #0415571; rhFGF-acidic (FGF-1), Peprotech, New Jersey, USA, #100-17A, Lot #031207; hVEGF-A165 (ProQinase GmbH, Freiburg, Germany; 05.02.2010) were used for stimulation of HUVEC cells growth.
(§4) Test system: Endothelial cells from human umbilical vein (HUVEC) from pooled donors were stored frozen with 70% medium, 20% FCS, 10% DMSO at about 1×10^6 cells/ampoule. HUVEC cells, primary human umbilical vein endothelial cells (PromoCell, Heidelberg, Germany), were used after passage 3 to 4. Morphology of the cells are adherent, cobblestone-like growing as monolayer and were cultured in endothelial cell growth and basal medium (ECGM/ECBM, PromoCell). The subculture was split 1:3; every 3-5 days, seed out at ca. 1×10^4 cells/cm^2 and incubated at 37° C. with 5% CO2 with a doubling time 24-48 hours
(§5) Dilution of test compounds: 100× concentrated solutions (concerning to the final assay concentrations) of each test compound were prepared with the appropriate solvent (in DMSO or in water). These 100×compound solutions were further diluted in endothelial cell growth and basal medium (ECBM) 1:7.5 to get a 13.33× concentrated solution. 75 μl of the 13.33×solution was subsequently mixed with 25 μl of 40× concentrated stimulus (solved in ECBM), resulting in a 10×concentrated stimulus/compound mixture. This mixture (100 μl) was incubated for 30 min at 37° C. and then added to 900 μl gel, containing the HUVEC spheroids (resulting in the final assay concentration).
(§6) Test method: the experiments were pursued in modification of the originally published protocol (Korff and Augustin: J Cell Sci 112: 3249-58, 1999). In brief, spheroids were prepared as described (Korff and Augustin: J Cell Biol 143: 1341-52, 1998) by pipetting 400 HUVEC in a hanging drop on plastic dishes to allow overnight spheroid aggregation. 50 HUVEC spheroids were then seeded in 0.9 ml of a collagen gel and pipetted into individual wells of a 24 well plate to allow polymerization. The test compounds were preincubated with the growth factors (FGF-1, FGF-2 or VEGF-A final concentration 25 ng/mL) in a 10-fold concentrated solution and subsequently, 100 μl of this solution was added on top of the polymerized gel. All compounds were diluted in solvent (DMSO or water) as 100×stocks first (which means 100×stocks of each final assay concentration were prepared in solvent). Subsequently, these stocks were further diluted in medium (resulting in the 13.33×stocks of each final assay concentration) with final concentrations tested: 100, 50, 25, 12.5, 6.25, 3.13 and 1.56×10^−6 M). Plates were incubated at 37° C. for 24 hours and fixed by adding 4% PFA (Roth, Karlsruhe, Germany).
(§7) Quantification of growth factor inhibition: sprouting intensity of HUVEC spheroids treated with the growth factor and the inhibitors were quantitated by an image analysis system determining the cumulative sprout length per spheroid (CSL).

FGF-1 = biological target: T2, FGF-1 (Homo sapiens, UniProt P05230); assay: FGF-1 induced sprouting of HUVEC, spheroid-based cellular angiogenesis assay; conditions: FGF-1 25 ng/mL preincubated with compound, 24 h
T2 construct: purchased Peprotech 100-17A
T2 sequence (P05230 whole entry): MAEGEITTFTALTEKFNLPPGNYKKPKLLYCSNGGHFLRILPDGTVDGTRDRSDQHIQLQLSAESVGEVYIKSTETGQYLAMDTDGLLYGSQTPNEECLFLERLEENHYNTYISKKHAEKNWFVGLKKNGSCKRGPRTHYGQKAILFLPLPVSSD
Experimental: as §1, §2, §3, §4, §5, §6, §7

VEGFR-2 = biological target: T3, VEGFR-2 (Homo sapiens, UniProt P35968); assay: VEGF-165 induced phosphorylation of VEGF-Receptor on HUVEC; conditions: HUVEC preincubated 60 min, VEGF165 25 ng/mL 2 min; read-out: VEGFR-Phosphorylation inhibition IC50
T3 construct: endogenous in cells; host or cells: primary HUVEC
T3 sequence (P35968 20-1356): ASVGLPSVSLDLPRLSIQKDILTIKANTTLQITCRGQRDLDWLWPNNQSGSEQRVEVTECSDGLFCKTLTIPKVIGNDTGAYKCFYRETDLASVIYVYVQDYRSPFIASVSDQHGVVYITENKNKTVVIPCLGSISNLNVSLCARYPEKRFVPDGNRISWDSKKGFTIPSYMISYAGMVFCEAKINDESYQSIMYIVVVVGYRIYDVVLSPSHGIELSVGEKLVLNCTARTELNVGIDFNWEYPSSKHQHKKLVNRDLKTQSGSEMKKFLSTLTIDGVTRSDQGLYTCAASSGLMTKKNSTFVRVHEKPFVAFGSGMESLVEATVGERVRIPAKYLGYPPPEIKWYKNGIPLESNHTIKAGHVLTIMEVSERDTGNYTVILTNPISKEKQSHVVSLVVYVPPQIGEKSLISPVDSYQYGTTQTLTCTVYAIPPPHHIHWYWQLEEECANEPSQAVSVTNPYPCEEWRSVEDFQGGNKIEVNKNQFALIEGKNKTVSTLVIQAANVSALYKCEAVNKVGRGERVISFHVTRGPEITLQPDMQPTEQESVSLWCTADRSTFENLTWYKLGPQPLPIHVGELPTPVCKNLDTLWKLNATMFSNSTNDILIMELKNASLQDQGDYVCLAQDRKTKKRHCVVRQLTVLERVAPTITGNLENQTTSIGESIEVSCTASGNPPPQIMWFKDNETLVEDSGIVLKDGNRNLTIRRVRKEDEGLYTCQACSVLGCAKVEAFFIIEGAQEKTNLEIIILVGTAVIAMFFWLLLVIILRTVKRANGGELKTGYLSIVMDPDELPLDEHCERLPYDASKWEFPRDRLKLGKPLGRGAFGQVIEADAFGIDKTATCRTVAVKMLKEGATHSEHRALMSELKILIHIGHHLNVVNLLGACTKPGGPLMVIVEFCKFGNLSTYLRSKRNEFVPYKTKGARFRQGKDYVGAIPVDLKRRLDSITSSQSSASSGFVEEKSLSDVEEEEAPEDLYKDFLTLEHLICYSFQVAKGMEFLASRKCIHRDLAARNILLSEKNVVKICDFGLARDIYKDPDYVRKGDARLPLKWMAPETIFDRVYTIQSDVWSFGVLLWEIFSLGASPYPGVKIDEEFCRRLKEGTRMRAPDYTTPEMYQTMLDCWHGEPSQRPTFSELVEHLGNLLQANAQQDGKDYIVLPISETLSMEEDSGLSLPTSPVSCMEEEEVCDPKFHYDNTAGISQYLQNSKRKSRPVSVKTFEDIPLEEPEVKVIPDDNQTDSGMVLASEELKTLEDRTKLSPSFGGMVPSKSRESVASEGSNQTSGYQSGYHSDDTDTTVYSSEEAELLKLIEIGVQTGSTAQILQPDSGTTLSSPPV
Experimental: Cell culture: Primary human umbilical vein endothelial cells (HUVECs) were routinely cultured in 0.1% gelatin pre-coated flasks or dishes, up to passage 6. […]
Rabbit primary antibodies for VEGFR-2, p-Tyr1175 were acquired from Cell Signaling Technology (Leiden, The Netherlands). Phospho-VEGFR-2 (Tyr1175) Sandwich ELISA Kit was from Cell Signaling Technology.
[…] Western blot analysis was performed using anti-phospho-VEGFR-2 antibody and total VEGFR-2 was used as a loading control after membrane stripping.
Inhibition of VEGFR-2-phosphorylation results are expressed as IC50 in microM [μM] versus VEGF-treated HUVECs control without inhibitory compound.

Human neutrophils [2] = assay: Neutrophil adhesion under static conditions; conditions: fMLP-stimulated adhesion to fibrinogen; method: 40 μM and 80 μM, concentration of the value not stated
Experimental: Human neutrophils obtained from buffy coats of healthy donors were suspended at 3×10^6/ml in adhesion buffer (PBS containing 1 mM CaCl2)/MgCl2 and 10% FCS, pH 7.2). Neutrophils were preincubated for 30 min at 37° C. with 40 μM and 80 μM of the compounds.
Adhesion assays were performed on 18-well glass slides coated for 18 h at 4° C. with human fibrinogen (20 μg/well in endotoxin-free PBS); 20 μl of cell suspension were added to each well and stimulated for 1 min at 37° C. with 5 μl of fMLP 1 nM final concentration. After washing, adherent cells were fixed in glutaraldehyde 1.5% in PBS and counted by computer-assisted enumeration. Statistical analysis was performed by calculating mean and standard deviation (SD); significance was calculated by unpaired t-test. All statistical analyses were performed using GraphPad Prism 6 (GraphPad Software).

Row | SMILES | IC50 (Human neutrophils [1]) [nM] | IC50 (FGF-2) [µM] | IC50 (FGF-1) [µM] | IC50 (VEGFR-2) [µM] | inhibition at 0.3 µM (Human neutrophils [1]) [%] | Neutrophil adhesion inhibition (Human neutrophils [2]) [%]
1 | O=C(O)c1cc(O)cc(C(=O)Nc2cccc(C(=O)O)c2C(=O)O)c1O [IIa-011a, 3-(3-carboxy-2,5-dihydroxybenzamido)phthalic acid] | 1180 | 123 | 141 | ≥ 100 | 58.1 | 26
2 | O=C(O)c1cc(NC(=O)c2cc(O)cc(C(=O)O)c2O)ccc1O [IIa-004a, 3-(3-carboxy-4-hydroxyphenylaminocarbonyl)-2,5-dihydroxybenzoic acid] | 1000 | 33 | 47 | ≥ 100 | 63.5 | 36
3 | O=C(O)Cc1cccc(NC(=O)c2cc(O)cc(C(=O)O)c2O)c1 [IIa-033a, 3-(3-(carboxymethyl)phenylaminocarbonyl)-2,5-dihydroxybenzoic acid] | 914 | 32 | 35 | 4.9 | 50.6 | 11.75
4 | O=C(O)c1ccc(NC(=O)c2cc(O)cc(C(=O)O)c2O)cc1 [IIa-003a, 3-(4-carboxyphenylaminocarbonyl)-2,5-dihydroxybenzoic acid] |  | 13 | 22 | 2.5 | 59.3 | 35.27
5 | CCOC(=O)c1cc(O)cc(C(=O)Nc2ccccc2-c2nnn[nH]2)c1O [IIa-001aTz-E1, ethyl 3-(2-(1H-tetrazol-5-yl)phenylaminocarbonyl)-2,5-dihydroxybenzoate] |  | 42 | ≥ 200 | ≥ 100 | 68.9 | 81.94
6 | O=C(O)c1cc(O)c(CS(=O)(=O)Cc2cc(O)c(C(=O)O)cc2O)cc1O [IIIc-059a, 4-((2,5-Dihydroxy-4-carboxyphenyl)methylsulfonylmethyl)-2,5-dihydroxybenzoic acid] | 1000 | 50 | 47 | 3.61 | 66.4 | 14.67
7 | CCOC(=O)c1cc(O)c(C(=O)Nc2ccc(O)c(C(=O)OC)c2)cc1O [Ia-004a-E2, ethyl 2,5-dihydroxy-4-(4-hydroxy-3-(methoxycarbonyl)phenylaminocarbonyl)benzoate] |  | 36 | 35 | 6.1 | 85.3 | 97.65
8 | O=C(O)c1ccccc1NC(=O)c1cc(O)cc(C(=O)O)c1O [IIa-001a, 3-(2-carboxyphenylaminocarbonyl)-2,5-dihydroxybenzoic acid] | 408 | 11 | 8.6 | ≥ 100 | 30.5 | 36.24

Now from value to compound, other results behind:

Row | IC50 (Human neutrophils [1]) [nM] | IC50 (FGF-2) [µM] | IC50 (FGF-1) [µM] | IC50 (VEGFR-2) [µM] | SMILES | inhibition at 0.3 µM (Human neutrophils [1]) [%] | Neutrophil adhesion inhibition (Human neutrophils [2]) [%]
9 | 1320 | 165 | 60 | ≥ 100 | O=C(O)Cc1cccc(NC(=O)c2cc(O)c(C(=O)O)cc2O)c1 [Ia-033a, 4-(3-(carboxymethyl)phenylaminocarbonyl)-2,5-dihydroxybenzoic acid] | 57.7 | 38
10 |  | 30 | 23 | 0.02 | COC(=O)c1cc(O)ccc1NC(=O)c1cc(O)c(C(=O)Nc2ccc(O)cc2C(=O)OC)cc1O [Ic-009a-E2, methyl 2-(2,5-dihydroxy-4-(4-hydroxy-2-(methoxycarbonyl)phenylaminocarbonyl)benzamido)-5-hydroxybenzoate] | 24.1 | 41.05
11 | 7900 | 49 | 23 | 0.25 | COC(=O)c1cc(NC(=O)c2cc(O)c(C(=O)Nc3ccc(O)c(C(=O)OC)c3)cc2O)ccc1O [Ic-007a-E2, methyl 5-(2,5-dihydroxy-4-(4-hydroxy-3-(methoxycarbonyl)phenylaminocarbonyl)benzamido)-2-hydroxybenzoate] | 21.3 | 2
12 | 410 | 71 | 20 | 36 | O=C(O)c1cc(O)c(C(=O)NCc2ccc(O)c(O)c2)cc1O [Ia-035a, 4-(3,4-Dihydroxyphenylmethylaminocarbonyl)-2,5-dihydroxybenzoic acid] | 75.1 | 27
